Assay results reported in patent US8486916B2, “Medicine, food and drink or feed containing sphingomyelin” (Megmilk Snow Brand Co., Ltd., priority 2005, dated 2013).

Legend:
[1] = test system: plaque-forming cells against the sheep red blood cells; assay: Inhibitory effect on antibody production (IgM PFC against sheep red blood cells); format: in vivo, Lewis rats; details: 2 mg/kg
Description: A mechanism under which sphingomyelin inhibits the onset of EAE was studied. […] The spleen was excised from each rat on the 18th day, and a single cell suspension was aseptically prepared therefrom. The red blood cells were removed by a hemolysis method. After washing with an RPMI-1640 medium, a cell suspension was prepared at a cell density of […]. The number of plaque-forming cells against the sheep red blood cells was counted according to the method of Jerne and used as the number of IgM PFC. From the results shown in Table 11, it was confirmed that sphingomyelin has inhibitory activity against antibody production.

[2] = test system: enteropathogenic E. coli O-157; assay: Test II on prevention of enteropathogenic E. coli O-157 infection; format: in vivo; details: mice, 8th day after administration of E. coli
Description: Sphingomyelin was tested for its effect of preventing enteropathogenic E. coli O-157 infection according to the method described in “Test Example 2” of Japanese Patent Laid-Open No. 2001-2704.
Test II on prevention of enteropathogenic E. coli O-157 infection
The survival rate of mice on the 8th day after the administration of E. coli was measured in the same way as in Test Example 10 except that the intake of sphingomyelin was changed to 0.1 to 10 mg/day.

[3] = test system: cholera toxin; details: in vivo
[4] = test system: Chinese hamster lung fibroblast cell line V79; format: cell-based
Description: The antioxidative activity of sphingomyelin was measured according to the method of Nakayama et al. (Mutation Research, vol. 281, pp. 77-80, 1992). […] Then, the antioxidative activity of sphingomyelin was determined using reduction in colony forming activity attributed to hydrogen peroxide as an index for toxicity and assessed based on the extent to which the colony forming activity recovered from such reduction by adding sphingomyelin to the cultured cells for test. The cultured cells for test were inoculated onto a plate and precultured (cell adhesion) for 2 hours. […] The cultured cells for test were incubated for 4 hours so that the cells were allowed to take up sphingomyelin, prior to hydrogen peroxide. Next, the cells were reacted for 30 minutes by the addition of hydrogen peroxide and damaged. After reaction, the cells were cultured for 5 days in a medium containing serum. In this context, the concentration of hydrogen peroxide was set to 60 μM at which colony forming activity was decreased to a few % to approximately 40%. […] In this context, higher cell viability indicates the higher antioxidative activity of the added sphingomyelin.

[5] = test system: erythrocyte membrane ghost; assay: Antioxidative activity: erythrocyte membrane ghost oxidation (TBA reaction); format: biochemical, rabbit
Description: The antioxidative activity of sphingomyelin was measured according to the method of Osawa et al. (J. Agric. Food Chem., vol. 35, pp. 809-812, 1987). Specifically, preserved rabbit blood was mixed with an equal amount of an isotonic solution (10 mM phosphate buffer/152 mM sodium chloride, pH 7.4), followed by centrifugation at 1,500×g (3,500 rpm) at 4° C. for 20 minutes. Blood corpuscles washed by repeating this procedure three times were mixed with an equal amount of a hypotonic solution (10 mM phosphate buffer, pH 7.4), followed by centrifugation at 20,000×g (11,000 rpm) at 4° C. for 40 minutes. Then, loose pellets (erythrocyte membrane ghost) obtained by repeating this procedure four times were used to examine antioxidative activity. […] An oxidation reaction was performed by the addition of an oxidizing agent. Subsequently, a TBA reaction was performed. Then, absorbance at 532 nm was measured to quantify an oxidation product.

[6] = test system: SD rats; assay: Water maze experiment (learning ability); format: in vivo; details: 2.0% in feed for 10 days
Description: The sphingomyelin raw material obtained in Example 1 was used to conduct a water maze experiment for the purpose of examining the influence of orally taken sphingomyelin on learned behavior. […] First, 8-week-old male SD rats (Charles River Laboratories, Japan) were preliminarily raised for 7 days using a standard diet (AIN-93G) and then divided into 3 groups each containing 6 individuals. In this context, the rats were raised under conditions involving room temperature of 24° C., humidity of 60%, and light-dark (12 hour/12 hour) control and were allowed to freely take deionized water. [table] Subsequently, a “water filled multiple T-maze” was prepared by arranging combined T-mazes with 11 choice points in a water tank of 120 cm long, 120 cm wide, and 40 cm deep. A water maze experiment was conducted at a water temperature of 23 to 24° C. according to the method of Ishizaki (Ishizaki, Exp. Anim., vol. 27, pp. 9-12, 1978). First, the rats were separately acclimatized by 5 trials in a straight waterway a day before the test. Next, each rat was given 3 trials in the water maze for 4 consecutive days of the test. The length of time taken to swim from the start to the goal of the water maze was measured.

[7] = test system: β-Lg; assay: Test on effect of blocking allergen invasion (β-Lg and anti-β-Lg IgE in blood); format: in vivo, Infant Wistar rats; details: for Anti-β-Lg IgE: blood 2 weeks after β-Lg; for β-Lg: blood 1 hour after β-Lg
Description: Infant Wistar rats (14 day old, body weight: around 20 g, 8 individuals, Charles River Laboratories, Japan) were divided into a control group and sphingomyelin administration groups (SPM administration groups), and all the groups were raised using artificial milk having composition closely analogous to that of rat milk. […] On the 21st day, 100 μl of a β-Lg solution (10 mg/ml) was orally administered thereto. Blood collected from the rats after 1 hour and after 2 weeks. On the other hand, a β-Lg solution and a complete Freund adjuvant were mixed for emulsification, and the emulsion was hypodermically injected to 3 locations (both sides of the back, and the hip) of a 3-month-old rabbit (Japanese white, male, manufactured by KITAYAMA LABES Co., Ltd.) to obtain anti-β-Lg serum. A β-Lg amount in the above-described blood after 1 hour was measured by a sandwich ELISA method using this antiserum as a primary antibody and a horseradish peroxidase (PO)-labeled secondary antibody. Moreover, anti-β-Lg IgE in the above-described blood after 2 weeks was measured by an ELISA method using β-Lg and a PO-labeled anti-rat IgE antibody (manufactured by Nordic).

sphingomyelin
Average IgM/10^3 spl with respect to saline-administered control group defined as 100% [1]: 20%
Average IgM/10^3 spl ([1]; spleen cells on the 18th day, saline 138): 27
Survival rate ([2]; intake 0.1 mg/day, control 35): 35%
Survival rate ([2]; intake 1.0 mg/day): 65%
Survival rate ([2]; intake 5.0 mg/day): 70%
Survival rate ([2]; intake 10.0 mg/day): 70%
Inhibition rate [3]: 38.9 ± 3.8%
own toxicity (colony forming activity) [4]: no reduction in colony forming activity
absorbance at 532 nm (oxidation product) with respect to absence of added sphingomyelin defined as 100% ([5]; sample concentration 0.01 mM, lower = higher antioxidative activity): 98%
absorbance at 532 nm (oxidation product) with respect to absence of added sphingomyelin defined as 100% ([5]; sample concentration 0.1 mM): 95%
absorbance at 532 nm (oxidation product) with respect to absence of added sphingomyelin defined as 100% ([5]; sample concentration 1 mM): 80%
absorbance at 532 nm (oxidation product) with respect to absence of added sphingomyelin defined as 100% ([5]; sample concentration 10 mM): 61%
Length of time taken to swim to goal ([6]; 1st day): 33 ± 10 s
Length of time taken to swim to goal ([6]; 2nd day): 25 ± 6 s
Length of time taken to swim to goal ([6]; 3rd day): 18 ± 5 s
Length of time taken to swim to goal ([6]; 4th day): 17 ± 6 s
Anti-β-Lg IgE ([7]; 0.05 mg/kg/day oral): 498.2 ± 156.8 ng/mL
β-Lg ([7]; 0.05 mg/kg/day oral): 38.6 ± 14.7 ng/mL
Anti-β-Lg IgE ([7]; 0.1 mg/kg/day oral): 190.6 ± 77.8 ng/mL
β-Lg ([7]; 0.1 mg/kg/day oral): 13.4 ± 6.6 ng/mL
Anti-β-Lg IgE ([7]; 5.0 mg/kg/day oral): 165.4 ± 65.9 ng/mL
β-Lg ([7]; 5.0 mg/kg/day oral): 5.6 ± 3.8 ng/mL
